# Results published in US20130053323A1, “METHODS AND USE RELATED TO HUMANIN AND HUMANIN-LIKE PEPTIDES” (priority 2009, published 2013).
# Tests used:
# growth plate = tested on: growth plate
# Description: The proteasome inhibitors (PIs), including bortezomib (Velcade™, PS-341), belong to another novel and promising group of CT that has past phase I clinical trials (Blaney, Bernstein et al. 2004) and are now under phase II clinical trials in pediatric cancers. However, secondary effects on normal bystander tissues of primary life saving modalities are so far unknown.
# [1] = tested on: chondrocytes of fetal rat metatarsal bones; assay: TUNEL apoptosis in growth plate sections of cultured rat metatarsal bones; assay type: cell-based; conditions: bortezomib 1-1000 nM, 12-day culture, p<0.001 vs control
# Description: (§1) The three middle metatarsal bone rudiments were dissected out from the paws of 20-day-old embryos (E20) (De Luca, Barnes et al. 2001). After dissection, bones were transferred to 24-well plates, one bone per well and cultured in 0.5 ml phenol-red MEM medium supplemented with 0.2% endotoxin-free fraction BSA, […] β-glycerophosphate, 0.05 mg/ml ascorbic acid and 100 μg/ml penicillin/streptomycin at 37° C. under 5% CO2 in humidified atmosphere. Medium was changed every 2-3 days. Images were captured at days 0, 2, 5, 7, 9 and 12 of culture, using a Hamamatsu C4742-95 digital camera mounted on a Nikon SMZ-U microscope. The Image-Pro plus™ (Media Cybernetics, USA) software was used to measure longitudinal growth. Metatarsal bone growth is expressed as a percentage of the length at the day of dissection (regarded as day 0). Treatment with CT (bortezomib), dexamethasone and/or HNG (S14G) was started 2-4 hours after dissection. All isolated bones were pooled and then randomly divided into the different treatment groups (4 to 6 bones per group). Each experiment was repeated at least 3 times.
# CT (bortezomib) is a cytotoxic drug known to cause critical alterations in cells/tissues and disturb the cellular homeostasis. […] Apoptosis was analyzed in whole growth plate sections of 12-day cultured rat metatarsal bones (perichondrium excluded) by applying the TUNEL technique to detect DNA fragmentation.
# [2] = tested on: apoptosis inducing factor (AIF) and BAX; assay: Western immunoblotting of pro-apoptotic proteins in C5.18 chondrocytic cell line; assay type: cell-based, rat; conditions: 1000 nM bortezomib, 6hrs
# Description: Western immunoblotting to study protein expression was performed in the rat C5.18 chondrocytic cell line after treatment with 1000 nM CT (bortezomib) or 100 nM humanin analog HNG (S14G)/1000 nM CT (bortezomib (Btz)) for 6hrs. […] By adding humanin analog HNG (S14G), the up-regulation and activation of the two pro-apoptotic proteins were suppressed. […] As an internal control the house-keeping gene, GAPDH (35 kDa) was used. The experiment was repeated twice.
# C57B and NMRI mice = assay: Bone length (X-ray) and body weight in normal C57B and NMRI mice; assay type: in vivo; conditions: for bone length (femur, X-ray): bortezomib 1 mg/kg i.p., 1 cycle
# Description: (§2) Normal 5-week old male C57B and NMRI (B&K Universal, Sollentuna, Sweden) mice were housed one per cage in our animal care facility under a 12-h light, 12-h dark schedule with water ad libitum. After an adaptation period, each strain of mice were divided into two groups according to their body weight and were weight-matched into pairs to either receive 1 cycle intra peritoneal (i.p) injections of CT (bortezomib; Millennium Pharmaceuticals, USA, 1 mg/kg of body weight; 2 injections/week, 2 weeks treatment) or saline (vehicle). Body weight, food and general physical status was recorded daily during the first 20 days, and each vehicle-treated mouse was pair-fed to corresponding weight-matched CT (bortezomib)-treated mice. […] X-ray analyses where performed approximately every second week from start of treatment (represents time-point zero) to time of killing (day 56).
# FIG. 5 illustrates a schematic representation of the experimental design for the in vivo studies in C57B and NMRI mice. Both strains of mice were housed one per cage with water ad libitum. At start of treatment, mice were randomized into two groups based on their body weight and were weight-matched into pairs to either receive 1 cycle of intraperitoneal (i.p.) injected CT (bortezomib, 1 mg/kg) or vehicle at the indicated time-points; day 1, 4, 8 and 11. Each vehicle treated mouse was pair-fed to a corresponding weight-matched CT (bortezomib) treated mouse. Mice were killed (t) on day 13 (48 hrs post treatment) or on day 56 (45 days post treatment). X-ray analyses where performed approximately every second week from start of treatment (represents time-point zero) to time of killing (day 13 or 56). Bone lengths (mm) of femur were analyzed in vehicle- and CT (bortezomib) treated animals. Each group included 7-10 mice.
# Body weight was measured in both strains of mice every day until day 20 after start of treatment, and once per week thereafter. […] The vertical hatched line in FIGS. 6A and B indicates the last injection on day 11. In light of the growth inhibiting effect on metatarsal bones in vitro and the association of many other cytotoxic drugs, the effect on bone growth was investigated in vivo. Normal 5-week old male C57B and NMRI mice were weigh-matched into pairs to either receive 1 cycle intra peritoneal (i.p) injections of CT (bortezomib) at a clinical relevant dose (1mg/kg of body weight; 2 injections/week, 2 weeks treatment) or saline (vehicle). One group were killed 48 hrs after last injection (day 13) to study the direct effects on bone growth and the growth plate chondrocytes. The second group of animals were followed another 45 days without any treatment and then killed (day 56, 45 days post treatment) to look at the long-term effect and if there was any catch-up growth. […]
# [3] = tested on: fetal rat metatarsal bones; assay: Longitudinal growth of cultured fetal rat metatarsal bones; assay type: cell-based
# Description: as §1
# The data shown in FIG. 2A indicates novel growth promoting/protective effects of humanin analog HNG (S14G) on longitudinal bone growth in cultured fetal rat metatarsal bones. […] Briefly, fetal rat metatarsal bones were pre-treated with different concentrations (mentioned in the figure) of HNG (S14G), 30 min prior to addition of Dexa. […] (n=4-6 bones/group)
# CT (bortezomib) is a cytotoxic drug known to cause critical alterations in cells/tissues and disturb the cellular homeostasis. To test the effect of CT (bortezomib) on chondocytes and longitudinal bone growth, the established in vitro model of fetal rat metatarsal bones was used. These bones were collected as described in material and methods, cultured and treated with different concentrations of CT (bortezomib) under sterile conditions for up to 12 days. […] Apoptosis was analyzed in whole growth plate sections of 12-day cultured rat metatarsal bones (perichondrium excluded) by applying the TUNEL technique to detect DNA fragmentation.
# In an attempt to block and prevent the negative effects on growth after CT (bortezomib)-treatment, recently discovered humanin analog HNG (S14G) was tested in vitro in fetal rat metatarsal bones.
# [4] = tested on: neuroblastoma (SK-N-BE(2)) tumor xenografts; assay: Doubling time of tumors in neuroblastoma xenografts; assay type: in vivo, human; conditions: bortezomib 0.8 mg/kg i.v. days 1, 4, 8, 11; p<0.05 vs vehicle
# [5] = tested on: growth plate chondrocytes; assay: TUNEL chondrocyte apoptosis in growth plate sections of C57B and NMRI mice; assay type: in vivo; conditions: bortezomib 1 mg/kg i.p.; day 13 (48 hrs post treatment); each strain, p<0.001 vs vehicle
# Description: as §2
# Cell death is a well known and desirable phenomenon in the anti-cancer therapy. However, side-effects of the treatment in other tissues and cells is not uncommon. To further investigate the underlying mechanism(s) to the observed growth impairment in vivo we studied apoptosis (by the TUNEL method). Apoptosis was quantified in paraffin embedded growth plate sections of CT (bortezomib) and vehicle treated C57B and NMRI mice sacrificed on day 13 of the study (48 hrs post treatment).
# [6] = tested on: human growth plate cartilage; assay type: cell-based; conditions: both, 24 h, 1000 nM
# Description: Biopsies from the proximal tibia and distal femur growth plates were collected in 5 pubertal children (3 boys and 2 girls) undergoing epiphyseal surgery for different medical conditions (4 patients with constitutional tall stature and 1 patient with leg length discrepancy). Biopsies were cut into thin slices under microscope and cultured for 24 hrs in the presence of 1000 nM CT (bortezomib). After fixation and sectioning, growth plates were analyzed using the TUNEL assay to determine the levels of chondrocyte apoptosis. […] CT (bortezomib) caused a significant increase in apoptosis (22.2±4.4% TUNEL positive cells vs. 6.3±1.8% in control; **p≦0.01, n=5 patients), which was mainly observed in stem-like and early proliferative chondrocytes. Our confirmation that human growth plate cartilage is also highly sensitive to bortezomib-induced cytotoxicity is of considerable clinical importance.
# growth plate cartilage = assay: Growth plate histology, resting and proliferating chondrocyte zone (R+P); assay type: in vivo, mice; conditions: Dexa alone, four weeks
# Description: Four weeks old mice (female, FVB) were injected with Dexa dissolved in saline ([…]) subcutaneously in the neck every day for four week. Whereas, HNG (S14G) dissolved in saline (1 μg/mice) was injected intra-peritoneally, 45 minutes prior to the Dexa injection for four weeks, for details see materials and methods. The femur and tibia bones were dissected out and fixed in 4% formalin for 24 hrs, followed by decalcification in 10% EDTA and embedded in paraffin blocks. Five-micrometer-thick sections were prepared from these paraffin blocks. The sections were prepared from the tibial growth plate and stained with Van Gieson. Digital images of stained sections were collected using a Nikon Eclipse E800 microscope (Nikon Corp., Tokyo, Japan) equipped with an Olympus DP70 digital camera (Olympus Sverige AB, Solna, Sweden).
# Since a positive effect of HNG (S14G) on bone growth was identified, different zones of chondrocytes were analyzed (resting, proliferative and hypertrophic) in growth plate cartilage, to identify visible changes in these zones. […] These micropgraphas also explain the longitudinal bone growth promoting effects by HNG (S14G) alone or in combination with Dexa.
# FVB mice = assay: Dexa-induced growth retardation in FVB mice (tibia length, nose to anus length); assay type: in vivo; conditions: Dexa 20 μg/mice/day s.c.
# Description: Four weeks old female mice FVB strain were obtained from Charles-River, Germany. The mice were kept in animal facility under a 12-h light, 12-h dark schedule with water ad libitum. After an adaptation period, mice were injected with Dexa dissolved in saline (20 μg/mice) subcutaneously in the neck every day for 1 week (short-term). Whereas, HNG (S14G) dissolved in saline (1 μg/mice) was injected intraperitoneally, 45 minutes prior to Dexa injection. The vehicle group received saline only. After one week of treatment/injections, animals were sacrificed and the back legs (femur and tibia) were collected. The skin and muscle from the tibia was removed and final length of tibia was measured by using electronic digital caliper as reported previously (Zaman, Menendez-Benito et al. 2007).
# In another study, four weeks old female mice FVB strain (Charles-river, Germany) were injected with Dexa dissolved in saline (20 μg/mice) subcutaneously in the neck every day for four week (long-term). Whereas, HNG (S14G) dissolved in saline (1 μg/mice) was injected intraperitoneally, 45 minutes prior to Dexa injection. The vehicle group received saline only. The total body length (nose to anus) was measured (centimeters, cm) manually (blinded, the cadges were coded on the day of measurment), every week. After 4 weeks of treatment, animals were sacrificed by inhalation of CO2, tissue samples (both left and right leg) were collected for subsequent analysis.
# HNG injections were given […] prior to Dexa injections. […] After this, we next asked whether HNG (S14G) has any protective effects on bone growth after long-term treatment with Dexa (FIG. 3A). To investigate this, we treated mice for 4 weeks (group 2) with Dexa (20 μg/mice/day) and HNG (1 μg/mice/day). […] In FIG. 3B, total growth of the animals, nose to anus length (cm, manually) was analyzed in vehicle, Dexa, HNG (S14G) and Dexa/HNG (S14G) treated animals after four weeks of injections. **p<0.01 by 1-way ANOVA analyses, n=9-10/animals/group).
# male Wistar rats = conditions: cited from earlier work
compound,measurement,setting,value
"CC(C)C[C@H](NC(=O)[C@H](Cc1ccccc1)NC(=O)c1cnccn1)B(O)O [CT (bortezomib), bortezomib]",effect on growth plate and growth,growth plate,permanent growth retardation and chondrocyte cell death
same,chondrocyte apoptosis (TUNEL),[1],significant dose-dependent increase in chondrocyte apoptosis
same,expression of pro-apoptotic proteins AIF and BAX,[2],induce up-regulation and activation
same,body weight,"C57B and NMRI mice; C57BL mice, bortezomib 1 mg/kg i.p. days 1, 4, 8, 11, vs vehicle",no difference in body weight
same,body weight,"C57B and NMRI mice; NMRI mice, bortezomib 1 mg/kg i.p. days 1, 4, 8, 11, day 36 until day 56, vs vehicle",significant difference in body weight
same,"bone length (femur, X-ray)","C57B and NMRI mice; after 45 day follow-up (day 56), p<0.001",still significantly shorter
same,"bone length (femur, X-ray)","C57B and NMRI mice; day 13, both strains, p<0.001 vs vehicle",significantly shorter
same,longitudinal bone growth,"[3]; bortezomib 50 nM or higher, from day 2 throughout 12 days, p<0.001 vs control",Significant growth suppression
same,longitudinal bone growth,"[3]; bortezomib 1000 nM for only 24 hrs, then control medium up to 12 days",permanent growth arrest
same,longitudinal bone growth,"[3]; bortezomib, all concentrations tested (25-100 nM)",completley abolished growth
same,tumor doubling time,[4],significant reduction in tumor doubling time
same,chondrocyte apoptosis (TUNEL),[5],significant induction of chondrocyte apoptosis
same,TUNEL positive cells,[6],22.2±4.4%
"C[C@@H]1C[C@H]2[C@@H]3CCC4=CC(=O)C=C[C@]4(C)[C@@]3(F)[C@@H](O)C[C@]2(C)[C@@]1(O)C(=O)CO [Dexa, Dexamethasone, reference compound]",size of resting and proliferating chondrocyte zone (R+P),growth plate cartilage,appears smaller
same,growth (tibia length),FVB mice; 1 week,significantly induced growth retardation
same,growth (nose to anus length),"FVB mice; 4 weeks, vs vehicle",significantly growth retarded
same,longitudinal bone growth,[3]; Dexa 1 μM alone,induced growth retardation
CC(C)C[C@H](NC(=O)[C@H](CC(C)C)NC(=O)[C@H](CC(C)C)NC(=O)OCc1ccccc1)B(O)O [MG262],effect on growth plate and growth,growth plate,permanent growth retardation and chondrocyte cell death
COc1cccc2c1C(=O)c1c(O)c3c(c(O)c1C2=O)C[C@@](O)(C(=O)CO)C[C@@H]3O[C@H]1C[C@H](N)[C@H](O)[C@H](C)O1 [doxorubicin],reduction in tibia length,male Wistar rats,18%
CN(Cc1cnc2nc(N)nc(N)c2n1)c1ccc(C(=O)N[C@@H](CCC(=O)O)C(=O)O)cc1 [methotrexate],reduction in tibia length,male Wistar rats,5%
Colivelin,protection against Dexa-induced bone growth retardation,[3]; colivelin 100 μM combined with Dexa 1 μM,some protective effect against Dexa-induced bone growth retardation
same,longitudinal growth,"[3]; colivelin alone, cultured for 12 days",some stimulatory effect on longitudinal growth
